Assay: Qualitative non-targeted LC-HRMS analysis of AR compounds in rat plasma after oral AR or MBST
Type: in vivo
Method: Extract powders of AR or MBST were suspended in distilled water and orally administered to rats having fasted for approximately 16 h. The dose of AR was set at 2 g/kg, and the MBST doses were set at 1 and 2 g/kg. 1 g/kg MBST contained 578 µg/kg, 147 µg/kg, 226 µg/kg, 426 µg/kg asarinin, sesamin, methyl kakuol, and amide A, respectively. The doses were chosen based on a previous pharmacological study of MBST using rats.
According to previous pharmacokinetic studies of herbal medicines, many of the components were quickly absorbed into the bloodstream, thereby providing the rationale for a sampling time at 1 h. Blood was centrifuged at 1200× g at 4 °C for 30 min to obtain plasma; then, the sample was stored at −80 °C until LC-HRMS analysis. […]
The plasma samples were collected at 1 h after MBST administration in case of both the qualitative (non-targeted) analysis and the quantitative (targeted) analysis.
The plasma samples of AR- or MBST-treated rats collected at 1 h post-administration were pretreated by deproteinization using methanol before the LC-HRMS analysis as follows: 100 µL plasma sample was mixed with 500 µL methanol, and the resultant solution was vortexed for 2 min. The mixture was centrifuged at 7000× g at 4 °C for 5 min. The supernatant was dried using a centrifugal evaporator, and the dried residue was dissolved in 100 μL of the initial LC mobile phase which is composed of 0.1 vol% formic acid in water/acetonitrile (99.9/0.1, v/v) and recentrifuged at 7000× g at 4 °C for 5 min. Finally, a 5 μL aliquot of the supernatant was injected into the LC-HRMS system comprised of an Acquity Ultra-Performance Liquid Chromatography System (Waters, Milford, MA, USA) and a Xevo G2-XS quadrupole time-of-flight MS (Waters) and was chromatographically separated using an ACQUITY UPLC HSS T3 column (2.1 × 150 mm I.D., 1.8-μm particle size; Waters) with an ACQUITY UPLC HSS T3 VanGuard Pre-column (2.1 mm × 5 mm I.D., 1.8-μm particle size; Waters) at 40 °C. The mobile phase consisted of solution A (0.1% formic acid, v/v) and solution B (acetonitrile) with a gradient of solution B (0.1%, 0 min; 99%, 24 min; v/v) at a flow rate of 0.4 mL/min. The analysis of the mass spectrometer fit with an electrospray ionization probe with sensitivity mode was performed for both the positive and negative ion mode. The resolution of the mass spectrometer was set at >20,000. For MS^E experiments, two acquisition functions with different collision energies were created: a low-energy function with a collision energy of 6 eV and a high-energy function with collision energy ranging from 15 to 40 eV.

Question: For “(2E,4E,9E)-8,11-Dihydroxy-N-isobutyl-2,4,9-dodecatrienamide, (2E,4E,8Z)-10,11-Dihydroxy-N-isobutyl-2,4,8-dodecatrienamide”, which “AR-Treated Rat Plasma (detection of compound)” value (rat plasma 1 h after oral 2 g/kg AR, n = 1, LC-HRMS) is on record?
Answer: Its value is “+ (The number of plus signs represents the sample number in which the compound was detected among AR-treated rat plasma (n = 1) and MBST-treated rat plasma (n = 3))”.

Question: And the “MBST-Treated Rat Plasma (detection of compound)” value (rat plasma 1 h after oral 2 g/kg MBST, n = 3, LC-HRMS)?
Answer: Its value is “+ + + (The number of plus signs represents the sample number in which the compound was detected among AR-treated rat plasma (n = 1) and MBST-treated rat plasma (n = 3))”.

From PMC7570662, “In Vivo Pharmacokinetic Analysis Utilizing Non-Targeted and Targeted Mass Spectrometry and In Vitro Assay against Transient Receptor Potential Channels of Maobushisaishinto and Its Constituent Asiasari Radix” (Molecules, 2020)
